Measured values reported in BigSolDB 2.1.

## c1ccc(-n2c3ccccc3c3ccccc32)cc1
In dimethyl carbonate, 283.15 K
  solubility (mole fraction): 0.054
In dimethyl carbonate, 288.15 K
  solubility (mole fraction): 0.0631
In dimethyl carbonate, 293.15 K
  solubility (mole fraction): 0.0771
In dimethyl carbonate, 298.15 K
  solubility (mole fraction): 0.0967
In dimethyl carbonate, 303.15 K
  solubility (mole fraction): 0.113
In dimethyl carbonate, 308.15 K
  solubility (mole fraction): 0.145
In dimethyl carbonate, 313.15 K
  solubility (mole fraction): 0.175
In dimethyl carbonate, 318.15 K
  solubility (mole fraction): 0.232
In dimethyl carbonate, 323.15 K
  solubility (mole fraction): 0.294
In ethyl acetate, 283.15 K
  solubility (mole fraction): 0.0902
In ethyl acetate, 288.15 K
  solubility (mole fraction): 0.109
In ethyl acetate, 293.15 K
  solubility (mole fraction): 0.125
In ethyl acetate, 298.15 K
  solubility (mole fraction): 0.14
In ethyl acetate, 303.15 K
  solubility (mole fraction): 0.162
In ethyl acetate, 308.15 K
  solubility (mole fraction): 0.197
In ethyl acetate, 313.15 K
  solubility (mole fraction): 0.238
In ethyl acetate, 318.15 K
  solubility (mole fraction): 0.286
In ethyl acetate, 323.15 K
  solubility (mole fraction): 0.337
In ethyl lactate, 283.15 K
  solubility (mole fraction): 0.0336
In ethyl lactate, 288.15 K
  solubility (mole fraction): 0.0362
In ethyl lactate, 293.15 K
  solubility (mole fraction): 0.0422
In ethyl lactate, 298.15 K
  solubility (mole fraction): 0.0502
In ethyl lactate, 303.15 K
  solubility (mole fraction): 0.0617
In ethyl lactate, 308.15 K
  solubility (mole fraction): 0.0731
In ethyl lactate, 313.15 K
  solubility (mole fraction): 0.0916
In ethyl lactate, 318.15 K
  solubility (mole fraction): 0.111
In ethyl lactate, 323.15 K
  solubility (mole fraction): 0.139
In isobutanol, 283.15 K
  solubility (mole fraction): 0.00379
In isobutanol, 288.15 K
  solubility (mole fraction): 0.00416
In isobutanol, 293.15 K
  solubility (mole fraction): 0.00494
In isobutanol, 298.15 K
  solubility (mole fraction): 0.00582
In isobutanol, 303.15 K
  solubility (mole fraction): 0.00684
In isobutanol, 308.15 K
  solubility (mole fraction): 0.00814
In isobutanol, 313.15 K
  solubility (mole fraction): 0.00922
In isobutanol, 318.15 K
  solubility (mole fraction): 0.0109
In isobutanol, 323.15 K
  solubility (mole fraction): 0.0133
In isobutyl acetate, 283.15 K
  solubility (mole fraction): 0.114
In isobutyl acetate, 288.15 K
  solubility (mole fraction): 0.132
In isobutyl acetate, 293.15 K
  solubility (mole fraction): 0.151
In isobutyl acetate, 298.15 K
  solubility (mole fraction): 0.177
In isobutyl acetate, 303.15 K
  solubility (mole fraction): 0.197
In isobutyl acetate, 308.15 K
  solubility (mole fraction): 0.235
In isobutyl acetate, 313.15 K
  solubility (mole fraction): 0.271
In isobutyl acetate, 318.15 K
  solubility (mole fraction): 0.32
In isobutyl acetate, 323.15 K
  solubility (mole fraction): 0.38
In isopentanol, 283.15 K
  solubility (mole fraction): 0.00614
In isopentanol, 288.15 K
  solubility (mole fraction): 0.00721
In isopentanol, 293.15 K
  solubility (mole fraction): 0.00852
In isopentanol, 298.15 K
  solubility (mole fraction): 0.0101
In isopentanol, 303.15 K
  solubility (mole fraction): 0.0125
In isopentanol, 308.15 K
  solubility (mole fraction): 0.0154
In isopentanol, 313.15 K
  solubility (mole fraction): 0.0201
In isopentanol, 318.15 K
  solubility (mole fraction): 0.0253
In isopentanol, 323.15 K
  solubility (mole fraction): 0.0339
In isopropyl acetate, 283.15 K
  solubility (mole fraction): 0.0729
In isopropyl acetate, 288.15 K
  solubility (mole fraction): 0.0842
In isopropyl acetate, 293.15 K
  solubility (mole fraction): 0.0983
In isopropyl acetate, 298.15 K
  solubility (mole fraction): 0.111
In isopropyl acetate, 303.15 K
  solubility (mole fraction): 0.133
In isopropyl acetate, 308.15 K
  solubility (mole fraction): 0.163
In isopropyl acetate, 313.15 K
  solubility (mole fraction): 0.198
In isopropyl acetate, 318.15 K
  solubility (mole fraction): 0.238
In isopropyl acetate, 323.15 K
  solubility (mole fraction): 0.291
In methyl acetate, 283.15 K
  solubility (mole fraction): 0.0727
In methyl acetate, 288.15 K
  solubility (mole fraction): 0.0874
In methyl acetate, 293.15 K
  solubility (mole fraction): 0.103
In methyl acetate, 298.15 K
  solubility (mole fraction): 0.128
In methyl acetate, 303.15 K
  solubility (mole fraction): 0.161
In methyl acetate, 308.15 K
  solubility (mole fraction): 0.199
In methyl acetate, 313.15 K
  solubility (mole fraction): 0.237
In methyl acetate, 318.15 K
  solubility (mole fraction): 0.277
In methyl acetate, 323.15 K
  solubility (mole fraction): 0.354
In n-butyl acetate, 283.15 K
  solubility (mole fraction): 0.113
In n-butyl acetate, 288.15 K
  solubility (mole fraction): 0.129
In n-butyl acetate, 293.15 K
  solubility (mole fraction): 0.146
In n-butyl acetate, 298.15 K
  solubility (mole fraction): 0.167
In n-butyl acetate, 303.15 K
  solubility (mole fraction): 0.186
In n-butyl acetate, 308.15 K
  solubility (mole fraction): 0.225
In n-butyl acetate, 313.15 K
  solubility (mole fraction): 0.26
In n-butyl acetate, 318.15 K
  solubility (mole fraction): 0.306
In n-butyl acetate, 323.15 K
  solubility (mole fraction): 0.355
In n-pentanol, 283.15 K
  solubility (mole fraction): 0.0091
In n-pentanol, 288.15 K
  solubility (mole fraction): 0.0106
In n-pentanol, 293.15 K
  solubility (mole fraction): 0.0122
In n-pentanol, 298.15 K
  solubility (mole fraction): 0.0147
In n-pentanol, 303.15 K
  solubility (mole fraction): 0.0173
In n-pentanol, 308.15 K
  solubility (mole fraction): 0.0212
In n-pentanol, 313.15 K
  solubility (mole fraction): 0.0252
In n-pentanol, 318.15 K
  solubility (mole fraction): 0.0309
In n-pentanol, 323.15 K
  solubility (mole fraction): 0.0417
In n-propyl acetate, 283.15 K
  solubility (mole fraction): 0.0761
In n-propyl acetate, 288.15 K
  solubility (mole fraction): 0.0873
In n-propyl acetate, 293.15 K
  solubility (mole fraction): 0.101
In n-propyl acetate, 298.15 K
  solubility (mole fraction): 0.119
In n-propyl acetate, 303.15 K
  solubility (mole fraction): 0.139
In n-propyl acetate, 308.15 K
  solubility (mole fraction): 0.16
In n-propyl acetate, 313.15 K
  solubility (mole fraction): 0.194
In n-propyl acetate, 318.15 K
  solubility (mole fraction): 0.231
In n-propyl acetate, 323.15 K
  solubility (mole fraction): 0.278
In sec-butanol, 283.15 K
  solubility (mole fraction): 0.00405
In sec-butanol, 288.15 K
  solubility (mole fraction): 0.00482
In sec-butanol, 293.15 K
  solubility (mole fraction): 0.00607
In sec-butanol, 298.15 K
  solubility (mole fraction): 0.00774
In sec-butanol, 303.15 K
  solubility (mole fraction): 0.00939
In sec-butanol, 308.15 K
  solubility (mole fraction): 0.0119
In sec-butanol, 313.15 K
  solubility (mole fraction): 0.0148
In sec-butanol, 318.15 K
  solubility (mole fraction): 0.0202
In sec-butanol, 323.15 K
  solubility (mole fraction): 0.0278
